Legend:
[1] = SGF/FaSSIF two-stage gastric transfer non-sink dissolution test; type: physicochemical; conditions: dosed dry (SDD dry powder or API), 30 min SGF, then FaSSIF pH 6.8
Description: In-vitro drug dissolution performance for each SDD prepared in Example 1 and described in Table 1 (i.e., Formulations 1-4) was evaluated by a two-stage gastric transfer non-sink dissolution test, which stimulates pH and bile salt concentrations for both gastric and intestinal exposure. A drug product sample start in 0.1N HCl(aq) (simulated gastric fluid or SGF) for 30 minutes at which point an equal volume of concentrated fasted-state simulated intestinal fluid (FaSSIF) is added to the SGF, resulting in a final pH of 6.8 in FaSSIF (100 mM PBS, 2.24 mg/mL SIF, Biorelevant Inc.).
The dissolution performance of the SDDs of Formulations 1-4 and crystalline Compound 1 was tested. The dissolution test is used to measure the supersaturation of drug above the bulk crystalline Compound 1 solubility in biorelevant intestinal media (FaSSIF) after 30 minutes exposure to a low-pH environment (SGF). During the test, samples were transferred from SGF [theoretical Cmax=1000 μA/mL] to FaSSIF SGF [theoretical Cmax=500 μA/mL].
The dissolution performance of the jet-milled material and crystalline Compound 1 was tested in a non-sink dissolution test, to measure the supersaturation of the drug above the bulk crystalline Compound 1 solubility in biorelevant intestinal media (FaSSIF) after 30 minutes exposure to a low-pH environment (SGF). During the test, samples were transferred from SGF to FaSSIF SGF. […]

HBV [2] = test: Study 211: open-label extension study of Compound 1 + Nrtl combination therapy; set-up: species or system human; conditions: in vivo
Description: Compound 1 was investigated in an open-label, extension study (Study 211) to evaluate the safety and efficacy of combination therapy and Compound 1's effect on sustained viral response biomarkers. […] Study 211 utilized the four assays described in Studies 201 and 202.
Participants with chronic HBV who were currently not being treated received Compound 1 along with SOC NUC (entecavir [ETV]) tablets orally for 24 weeks. Eligible participants entered a separate extension study after Week 24 to continue open-label Compound 1 for up to an additional year.

HBV [3] = test: Study 202: Compound 1+ETV vs placebo+ETV in treatment-naive HBeAg positive viremic chronic hepatitis B subjects; type: in vivo, human; conditions: Tx naïve HBeAg+ subjects
Description: In this study (also referred to as study 202), 25 treatment-naive HBeAg positive […] subjects are randomized 1:1 (Group 1: […] FIG. 1 depicts a flow chart of the study. […] Subjects (Group 2) with chronic HBV who are currently not being treated receive matching placebo along with SOC NUC (entecavir [ETV]) tablets orally for 24 weeks. Subjects receive SOC NUC (0.5 mg QD of ETV) orally as per approved package insert and matching QD placebo tablets orally. […] Subjects return to the clinic at weeks (wk) 2 and 4 and then monthly up to wk 24. Clinical labs, safety and PK are monitored, as well as HBV biomarkers including HBV DNA, HBV RNA, HBsAg and HBeAg. At weeks 12 and 24, longitudinal serum samples are assayed for detectable virus. Compound 1 is abbreviated as C1 in the tables and figures.

[4] = listed as Crystalline Compound 1

For `O=C(NCc1cnc(C(F)(F)F)s1)c1ccc2c(c1)NC(=O)c1ccccc1S2(=O)=O` [Compound 1-Jet Mill, 11-oxo-N-((2-(trifluoromethyl)thiazol-5-yl)methyl)-10,11-dihydrodibenzo[b,f][1,4]thiazepine-8-carboxamide 5,5-dioxide], the “AUC35-210FaSSIF (area under the curve after transfer to FaSSIF from 35 to 210 minutes)” value (from here on “AUC35-210FaSSIF”) [1] was 5400 min * μgA/mL, the “C210 (drug concentration at 180 minutes after transfer to FaSSIF)” value [1] was 29.6 μgA/mL and the “Cmax FaSSIF (maximum drug concentration after transfer to FaSSIF)” value (from here on “Cmax FaSSIF”) [1] was 38.0 μgA/mL.

In the case of `O=C(NCc1cnc(C(F)(F)F)s1)c1ccc2c(c1)NC(=O)c1ccccc1S2(=O)=O` [Compound 1, 11-oxo-N-((2-(trifluoromethyl)thiazol-5-yl)methyl)-10,11-dihydrodibenzo[b,f][1,4]thiazepine-8-carboxamide 5,5-dioxide], the “effect on pgRNA levels” value (HBV [2]) is reported as “multi-log reduction in pgRNA levels”.

In the case of `O=C(NCc1cnc(C(F)(F)F)s1)c1ccc2c(c1)NC(=O)c1ccccc1S2(=O)=O` [Formulation 5, 11-oxo-N-((2-(trifluoromethyl)thiazol-5-yl)methyl)-10,11-dihydrodibenzo[b,f][1,4]thiazepine-8-carboxamide 5,5-dioxide], the “AUC35-210FaSSIF” value [1] is reported as 5300 min * μgA/mL, the “C210 (drug concentration at 180 minutes after transfer to FaSSIF)” value [1] is reported as 27.6 μgA/mL and the “Cmax FaSSIF” value [1] is reported as 33.4 μgA/mL. The “AUC35-210FaSSIF” value [1, 4] was 5300 min * μgA/mL and the “Cmax FaSSIF” value [1, 4] was 33.4 μgA/mL.

In the case of `C=C1[C@H](CO)[C@@H](O)C[C@@H]1n1cnc2c(=O)[nH]c(N)nc21` [ETV, entecavir], the “HBV DNA mean log10 decline” value (HBV [3]; Week 12) is reported as 3.29 log10 IU/mL, the “HBV RNA mean log10 decline” value (HBV [3]; Week 12) is reported as 0.44 log10 copies/mL and the “HBV DNA mean log10 decline” value (HBV [3]; Week 24) is reported as 3.99 log10 IU/mL. For the same compound, the “HBV RNA mean log10 decline” value (HBV [3]; Week 24) was 0.61 log10 copies/mL.

Source: US20220241208A1, “PHARMACEUTICAL COMPOSITIONS FOR THE TREATMENT OF HBV” (priority 2019, published 2022)
